Measurements taken from US12055553B2, “Method for diagnosing risk for inflammatory disease through glycan profiling” (The Regents of the University of California, priority 2017, dated 2024).

Assays:
[1] = system: Caco-2 cells; type: cell-based; conditions: for change in sialylated glycans / change in fucosylated glycans / fucosylation: fucose 25 mM, butyrate 10 mM; for decrease in sialylated glycans collectively / increase in fucosylated glycans collectively: GlcNAc 25 mM, cell line not given; for decrease in sialylated glycans collectively / increase in fucosylated glycans collectively / increase in abundance of non-decorated complex/hybrid type N-glycans: GalNAc; for change in fucosylated glycans / fucosylation: acetate, lactate
Procedure: (§1) We examined whether supplementation of free monosacchaides derived from diet changes N-glycosylation outcomes on the intestinal cell-surface at concentrations relevant to physiological conditions. Changes in glycosylation were assessed by globally releasing glycans from membrane proteins extracted from fully differentiated (Caco-2) and partially differentiated (HT-29) intestinal epithelial cells and analyzing the mixture by porous graphitized carbon (PGC)-LC-MS. […] The glycan profile under normal growth conditions was used as a frame of reference with which to compare the glycome at varied environments.
(§2) Human colorectal adenocarcinoma Caco-2 cells derived from a person, were obtained from American Type Culture Collection (ATCC, VA) and grown in Eagle's Minimum Essential Medium (EMEM) supplemented with non-essential amino acids, 2 mM L-glutamine, 10% (v/v) fetal bovine serum (Life Technologies, NY), 1 mM sodium pyruvate, 1.5 g/L sodium bicarbonate, 100 U/mL penicillin, and 100 μg/mL streptomycin. Alternatively, Caco-2 cells were grown in Dulbecco's Modified Eagle's Medium (DMEM) supplemented with 10% (v/v) fetal bovine serum, 100 U/mL penicillin, and 100 μg/mL streptomycin. Human colorectal adenocarcinoma HT-29 cells, derived from a person, were obtained from ATCC and grown in McCoy's 5A medium supplemented with 10% (v/v) fetal bovine serum, 100 U/mL penicillin, and 100 μg/mL streptomycin. Cells were subcultured at 80% confluency and maintained at 37° C. in a humidified incubator with 5% CO=2. All treatments were added to the media after cell differentiation. Caco-2 cells were fully differentiated 14-days post-confluency. HT-29 cells were partially differentiated 4-days post-confluency. After 72 h, cells were collected in biological triplicates by scraping A fixed count of 2×10^6 viable cells was used for each experiment Passage number between experiments was controlled to no higher than P40 and a delta P of no more than 20. High passage cells were scraped after P80. Media was renewed three times a week unless specified. Monolayer integrity and quality of cell borders were evaluated under the microscope routinely during growth and before harvest.
(§3) In brief harvested cells were resuspended in homogenization buffer containing 0.25 M sucrose, 20 mM HEPES-KOH (pH 7.4), and 1:100 protease inhibitor (EMD Millipore, CA). Cell lysis was performed on ice using a probe sonicator (Qsonica, CT) with five alternating and on and off pulses in 5 and 10 s intervals, respectively. Lysates were […] at 2,000×g for 10 min to remove the nuclear fraction and cellular debris. The supernatant was collected and brought to 1 mL with homogenization buffer for ultracentrifugation at 200,000×g for 45 min at 4° C. The pallet was resuspended and repelleted by ultracentrifugation in 0.2 M Na2CO3 (pH 11) followed by water to fragment the endoplasmic reticulum and remove the cytoplasmic fraction, respectively. The resulting membrane faction was isolated and stored at −20° C. until further processing.
(§4) Membrane pellets were resuspended with 100 μL of 100 mM ammonium bicarbonate in 5 mM dithiothreitol and heated for 10 s at 100° C. to thermally denature the proteins. […] After addition of 400 μL of chilled ethanol, samples were placed in −80° C. for 1.5 h and centrifuged for 20 min at 21,130×g to precipitate residual deglycosylated proteins. The supernatant containing the released N-glycans was collected and dried. N-Glycans were purified by solid phase extraction containing a porous graphitized carbon (PGC) matrix. Eluted fractions were dried in vacuo.

[2] = system: THP-1 cells; test: Lectin array of THP-1 monocyte cell surface glycan composition after monosaccharide supplementation; type: cell-based; conditions: 3 days
Procedure: THP-1 cells (monocyte cell line) were incubated with different sugars (i.e. monosaccharides) for 3 days. Lectin arrays were used to detect changes in the cell surface glycan composition. Secreted HDL from the cell supernatant (monocytes secrete their own HDL) was isolated and then analyzed to determine the glycan composition.
• ConA (Concanavalin A): binds internal and nonreducing terminal α-D-mannosyl (αMan) and α-D-glucosyl groups (αGIc) • JAC (Jacalin): binds galactose-containing O-glycoproteins (Galβ3GalNac) • SNA (Sambucus nigra): binds sialic acid attached to terminal galactose in α-2,6 and to a lesser degree, α-2,3 linkage (Neu5Acα6Gal/GalNac) • AAL (Aleuria auanda lectin): binds fucose linked (α-1,6) to N-acetylglucosamine or to fucose linked (α-1,3) to N-acetyllactosamine related structures, exposed core (α-1, 6) and outer arm (α-1, 2 or α-1, 3) linked fucose moieties. Sugar Treatments: • L-fucose: Tested 2 doses: 300 umol/L (physiologic) and 100 mmol/L. (Marquardt T, Blood, December 15; 94(12):3976-85, 1999): Named L-Fuc Low and L-Fuc High • Fructose: Tested 2 doses: 27 mmol/L (physiologic) and 100 mmol/L. (Hui H, Pancreas, August 38(6): 706-12, 2009); Named Fruc Low and Fruc High • N-acetylglucosamine (GlcNAc): Tested 1 dose: 100 mmol/L. (Villiger TK, Controlling the time evolution of mAb N-finked glycosylation, Part I: Microbioreactor experiments, Biotechnol Prog, September; 32(5):1123-1134, 2016) • Galactose: The two doses for the galactose treatment in the glycan array experiments were: 150 mmol/L and 75 mmol/L. (Villiger TK, Controlling the time evolution of mAb N-linked glycosylation, Part II: Model-based predictions, Biotechnol Prog, September; 32(5):135-1148, 2016)

[3] = system: HT-29 cells; test: Cell surface N-glycan profiling (PGC-LC-MS) of HT-29 after supplementation; type: cell-based, Human
Procedure: as §1, §2, §3, §4

[4] = Caco-2, 72 h, Ac5-Sia up to 10 mM, glutamine 10 mM
[5] = single dose (GlcNAc 100 mmol/L) or dose not distinguished
[6] = high dose (galactose 150 mmol/L, fructose 100 mmol/L, L-fucose 100 mmol/L)
[7] = low dose (galactose 75 mmol/L, fructose 27 mmol/L, L-fucose 300 umol/L)

Q: What does the source list for `CC(=O)N[C@H]1[C@H]([C@H](OC(C)=O)[C@@H](COC(C)=O)OC(C)=O)OC(OC(C)=O)(C(=O)O)C[C@@H]1OC(C)=O` (stereo partly shown) [Ac5-Sia, 2,4,7,8,9-penta-O-acetyl N-acetylneuraminic acid]?
A: change in monofucosylated glycans ([1]; Ac5-Sia up to 10 mM, 72 h): significant increases; change in sialylated glycans [1, 4]: remained relatively unchanged

Q: How did the “decrease in sialylated glycans collectively” value ([1]; 72 h) turn out when `CC(=O)N[C@H]1C(O)O[C@H](CO)[C@H](O)[C@@H]1O` (stereo partly shown) [GalNAc, N-acetylgalactosamine] was run?
A: 31.9%

Q: What about the “increase in fucosylated glycans collectively” value ([1]; 72 h) of the same compound?
A: 120%

Q: What about the “increase in abundance of non-decorated complex/hybrid type N-glycans” value ([1]; Caco-2, 72 h, fructose 50 mM) of the same compound?
A: 234%

Q: And the “fold increase of Hex3HexNAc4Fuc1” value ([1]; GalNAc supplementation, 72 h)?
A: 13 fold

Q: What about the “fold increase of Hex3HexNAc5Fuc1” value ([1]; GalNAc supplementation, 72 h) of the same compound?
A: 7 fold

Q: What does the source list for `CC(=O)N[C@H]1C(O)O[C@H](CO)[C@@H](O)[C@@H]1O` (stereo partly shown) [GlcNAc, N-acetylglucosamine]?
A: AAL binding (fucosylated glycans) [2, 5]: decreased; ConA binding (glucose or mannose-terminated glycans) [2, 5]: decreased; JAC binding (terminal galactose containing glycans) [2, 5]: decreased; SNA binding (terminal sialic acid) [2, 5]: did not change; decrease in sialylated glycans collectively ([1]; 72 h): 53.9%; increase in fucosylated glycans collectively ([1]; 72 h): 61.2%

Q: What does the source list for `CC(=O)O` [acetate]?
A: change in fucosylated glycans / fucosylation ([1]; Caco-2, 72 h, glutamine 10 mM): significant increase; fold decrease of Hex6HexNAc6Fuc1NeuAc3 ([1]; Caco-2, SCFA 10 mM, 72 h): 4.7 fold; fold decrease of Hex7HexNAc7Fuc1NeuAc1 ([1]; Caco-2, SCFA 10 mM, 72 h): 2.7 fold; fold increase of Hex6HexNAc6NeuAc1 ([1]; Caco-2, SCFA 10 mM, 72 h): 8.1 fold

Q: How did the “fold increase of each of Hex3HexNAc4Fuc1, Hex6HexNAc7Fuc1, Hex7HexNAc7Fuc1” value ([3]; HT-29, butyrate 10 mM, 72 h) turn out when `CCCC(=O)O` [butyrate] was run?
A: more than 13 fold

Q: And the increase in fucosylation ([3]; HT-29, butyrate 10 mM, 72 h)?
A: 262%

Q: Which “AAL binding (fucosylated glycans)” value [2, 6] does the source give for `O=C(CO)[C@@H](O)[C@H](O)[C@H](O)CO` [fructose] here?
A: decreased

Q: What about the “JAC binding (terminal galactose containing glycans)” value (“JAC binding” for short) [2, 6] of the same compound?
A: decreased

Q: And the “SNA binding (terminal sialic acid)” value [2, 6]?
A: no effect

Q: And the “AAL binding (fucosylated glycans)” value [2, 7]?
A: decreased

Q: What about the “SNA binding (terminal sialic acid)” value [2, 7] of the same compound?
A: decreased

Q: What about the “ConA binding (glucose or mannose-terminated glycans)” value (“ConA binding” for short) [2, 5] of the same compound?
A: decreased

Q: What about the “increase in abundance of high mannose type N-glycans” value ([1]; Caco-2, 72 h, fructose 50 mM, glutamine 10 mM) of the same compound?
A: 511%

Q: What about the “increase in abundance of non-decorated complex/hybrid type N-glycans” value ([1]; Caco-2, 72 h, fructose 50 mM) of the same compound?
A: 672%

Q: And the “fold increase of each of Hex3HexNAc4Fuc1, Hex4HexNAc5Fuc1, Hex6HexNAc4Fuc1, Hex5HexNAc5Fuc1” value ([1]; Caco-2, fructose 50 mM, 72 h)?
A: more than 4 fold

Q: What about the “change in fucosylated glycans” value ([3]; HT-29, 72 h, fructose 50 mM, glutamine 10 mM) of the same compound?
A: remained unaltered

Q: And the “change in high mannose type glycans” value ([3]; HT-29, 72 h, mannose, fructose 50 mM, glutamine 10 mM, glutamate 2 mM)?
A: remained unaltered

Q: Which “AAL binding (fucosylated glycans)” value [2, 6] does the source give for `C[C@H](O)[C@@H](O)[C@@H](O)[C@H](O)C=O` [fucose, L-fucose] here?
A: decreased

Q: What about the “ConA binding” value [2, 6] of the same compound?
A: decreased

Q: And the “JAC binding” value [2, 6]?
A: decreased

Q: And the “SNA binding (terminal sialic acid)” value [2, 6]?
A: increased

Q: What about the “AAL binding (fucosylated glycans)” value [2, 7] of the same compound?
A: decreased

Q: And the “ConA binding” value [2, 7]?
A: decreased

Q: What about the “JAC binding” value [2, 7] of the same compound?
A: decreased

Q: And the “SNA binding (terminal sialic acid)” value [2, 7]?
A: increased

Q: What about the “change in sialylated glycans” value [1, 4] of the same compound?
A: overall decrease

Q: What about the “change in fucosylated glycans / fucosylation” value ([1]; Caco-2, 72 h, glutamine 10 mM) of the same compound?
A: neither the total levels nor the degree of fucosylation deviated significantly
